Test results as given in patent US20100305173A1, “HYDROXYETHYLAMINO SULFONAMIDE DERIVATIVES” (CoNCERT Pharmaceuticals, Inc., priority 2009, published 2010).
Like-named read-outs stand apart in the source and are kept apart here.

Assay: Metabolic stability of test compounds in human liver microsomes
Format: in vitro ADME
Conditions: for half-life: human, liver microsomes, pH 7.4, half-life in human liver microsomes
Experimental: Determination of Metabolic Stability of Test Compounds in
Human Liver Microsomes. Human liver microsomes (20 mg/mL) were obtained from Xenotech, LLC (Lenexa, Kans.). β-nicotinamide adenine dinucleotide phosphate, reduced form (NADPH), magnesium chloride (MgCl2), and dimethyl sulfoxide (DMSO) were purchased from Sigma-Aldrich.
7.5 mM stock solutions of test compounds were prepared in DMSO. […] The diluted microsomes (375 μL) were added to wells of a 96-well deep-well polypropylene plate in triplicate. […] Reactions were initiated by addition of 125 μL of pre-warmed NADPH solution. The final reaction volume was 0.5 mL and contained 0.5 mg/mL human liver microsomes, 0.25-1.0 μM test compound, and 2 mM NADPH in 0.1 M potassium phosphate buffer, pH 7.4, and 3 mM MgCl2. The reaction mixtures were incubated at 37° C., and 50 μL aliquots were removed at 0, 5, 10, 20, and 30 minutes and added to shallow-well 96-well plates which contained 50 μL of ice-cold ACN with internal standard to stop the reactions. The plates were stored at 4° C. for 20 minutes after which 100 μL of water was added to the wells of the plate before centrifugation to pellet precipitated proteins. Supernatants were transferred to another 96-well plate and analyzed for amounts of parent compound remaining by LC-MS/MS using an Applied Bio-systems API 4000 mass spectrometer. 7-ethoxycoumarin (1 μM) was used as the positive control substrate.
Data analysis: The in vitro half-lives (tii2s) for test compounds were calculated from the slopes of the linear regression of % parent remaining (ln) vs incubation time relationship using the following formula: […]
Data analysis was performed using Microsoft Excel Software.
FIG. 1, FIG. 2, FIG. 3, Table 2, Table 3 and Table 4 show the results of this experiment.

[1] = Table 4, Expt I, read-out: T1/2 (min) Expt I
[2] = Table 4, Expt J, read-out: T1/2 (min) Expt J
[3] = Table 4, calculated average of Expt E-J, read-out: T1/2 (min) Average ± SD
[4] = Table 4, Expt H, read-out: T1/2 (min) Expt H
[5] = Table 2, Exp A, read-out: T1/2 (min) Exp A
[6] = Table 2, Exp B, read-out: T1/2 (min) Exp B
[7] = Table 2, calculated average of Exp A and B, read-out: T1/2 (min) Average
[8] = Table 4, Expt G, read-out: T1/2 (min) Expt G
[9] = Table 3, Exp C, read-out: T1/2 (min) Exp C
[10] = Table 3, Exp D, read-out: T1/2 (min) Exp D
[11] = Table 3, calculated average of Exp C and D, read-out: T1/2 (min) Average

| half-life [1] [min] | half-life [2] [min] | half-life [3] [min] | half-life [5] [min] | half-life [6] [min] | half-life [7] [min] | half-life [9] [min] | half-life [10] [min] | half-life [11] [min] | other results | Compound |
| --- | --- | --- | --- | --- | --- | --- | --- | --- | --- | --- |
| 2 | 2 | 2 |  |  |  |  |  |  |  | Cc1nc(COc2ccc(C[C@H](NC(=O)O[C@H]3CO[C@H]4OCC[C@H]43)[C@H](O)CN(CC(C)C)S(=O)(=O)c3ccc4c(c3)OCO4)cc2)cs1 [Brecanavir, N-[3-[N-(1,3-Benzodioxol-5-ylsulfonyl)-N-isobutylamino]-2(R)-hydroxy-1-(S)-[4-(2-methylthiazol-4-ylmethoxy)benzyl]propyl]carbamic acid (3R,3aS,6aR)-perhydrofuro[2,3-b]furan-3-yl ester, reference compound] |
| 21.5 | 46.7 | 23 ± 5.7 |  |  |  |  |  |  | increase in stability over darunavir and brecanavir (human liver microsomes, versus darunavir and brecanavir, in words): very significant increase in stability; half-life (Table 4, Expt E, read-out: T1/2 (min) Expt E): 31.2 min; half-life (Table 4, Expt F, read-out: T1/2 (min) Expt F): 21.2 min; half-life [4]: 18.1 min | [2H]C([2H])([2H])C([2H])(C([2H])([2H])[2H])C([2H])([2H])N(C[C@@H](O)[C@H](Cc1ccccc1)NC(=O)O[C@]1([2H])[C@@H]2CCO[C@@H]2OC1([2H])[2H])S(=O)(=O)c1ccc2occc2c1 [Compound 106, (3R,3aS,6aR)-hexahydrofuro[2,3-b]furan-3-yl-((2S,3R)-3-hydroxy-4-(N-isobutylbenzofuran-5-sulfonamido)-1-phenylbutan-2-yl)carbamate-d12] |
| 7.2 | 7.1 | 6.3 ± 1 | 9 | 4.3 | 6.6 |  |  |  | half-life [8]: 5.7 min; half-life [4]: 5.3 min | [2H]C([2H])([2H])C([2H])(C([2H])([2H])[2H])C([2H])([2H])N(C[C@@H](O)[C@H](Cc1ccccc1)NC(=O)O[C@]1([2H])[C@@H]2CCO[C@@H]2OC1([2H])[2H])S(=O)(=O)c1ccc(NC(C)=O)cc1 [Compound 227, (3R,3aS,6aR)-hexahydrofuro[2,3-b]furan-3-yl-((2S,3R)-4-(4-acetamido-N-isobutylphenylsulfonamido)-3-hydroxy-1-phenylbutan-2-yl) carbamate-d12] |
| 6 | 5.8 | 6.2 ± 0.4 |  |  |  | 8.7 | 8.6 | 8.6 | half-life [8]: 6.4 min; half-life [4]: 6.7 min | [2H]C([2H])([2H])C([2H])(C([2H])([2H])[2H])C([2H])([2H])N(C[C@@H](O)[C@H](Cc1ccccc1)NC(=O)O[C@]1([2H])[C@@H]2CCO[C@@H]2OC1([2H])[2H])S(=O)(=O)c1ccc2ncsc2c1 [Compound 229, (3R,3aS,6aR)-hexahydrofuro[2,3-b]furan-3-yl-((2S,3R)-3-hydroxy-4-(N-isobutylbenzo[d]thiazole-6-sulfonamido)-1-phenylbutan-2-yl)carbamate-d12] |
|  |  |  |  |  |  | 11.7 | 15.1 | 13.4 | increase in stability over darunavir (human liver microsomes, average of two runs, versus darunavir): 36%; increase in stability over 302, its non-deuterated counterpart (human liver microsomes, versus 302, in words): an even greater increase in stability | [2H]C([2H])([2H])C([2H])(C([2H])([2H])[2H])C([2H])([2H])N(C[C@@H](O)[C@H](Cc1ccccc1)NC(=O)O[C@@]1([2H])C([2H])([2H])O[C@@]2([2H])OC([2H])([2H])C([2H])([2H])[C@]21[2H])S(=O)(=O)c1ccc2ncsc2c1 [Compound 230, (3R,3aS,6aR)-hexahydrofuro[2,3-b]furan-3-yl-((2S,3R)-3-hydroxy-4-(N-isobutylbenzo[d]thiazole-6-sulfonamido)-1-phenylbutan-2-yl)carbamate-d18] |
|  |  |  | 4.7 | 2.4 | 3.5 |  |  |  |  | [2H]C([2H])([2H])C([2H])(C([2H])([2H])[2H])C([2H])([2H])N(C[C@@H](O)[C@H](Cc1ccccc1)NC(=O)O[C@]1([2H])[C@@H]2CCO[C@@H]2OC1([2H])[2H])S(=O)(=O)c1ccc(NC(=O)C2CC2)cc1 [Compound 233, (3R,3aS,6aR)-hexahydrofuro[2,3-b]furan-3-yl-((2S,3R)-4-(4-(cyclopropanecarbox-amido)-N-isobutylphenylsulfonamido)-3-hydroxy-1-phenylbutan-2-yl)carbamate-d12] |
|  |  |  | 2.4 | 1.5 | 2 |  |  |  |  | [2H]C([2H])([2H])C([2H])(C([2H])([2H])[2H])C([2H])([2H])N(C[C@@H](O)[C@H](Cc1ccccc1)NC(=O)O[C@]1([2H])[C@@H]2CCO[C@@H]2OC1([2H])[2H])S(=O)(=O)c1ccc2occ(CNC(=O)OCC)c2c1 [Compound 235, ((5-(N-((2R,3S)-3-(((((3R,3aS,6aR)-hexahydrofuro[2,3-b]furan-3-yl)oxy)carbonyl)amino)-2-hydroxy-4-phenylbutyl)-isobutylsulfamoyl)benzofuran-3-yl)methyl)carbamic acid ethyl ester-d12] |
|  |  |  | 7.1 | 3.6 | 5.4 |  |  |  |  | [2H]C([2H])(N(C[C@@H](O)[C@H](Cc1ccccc1)NC(=O)O[C@]1([2H])[C@@H]2CCO[C@@H]2OC1([2H])[2H])S(=O)(=O)c1ccc(NC(C)=O)cc1)C1([2H])C([2H])([2H])C([2H])([2H])C([2H])([2H])C1([2H])[2H] [Compound 236, (3R,3aS,6aR)-hexahydrofuro[2,3-b]furan-3-yl-((2S,3R)-4-(4-acetamido-N-(cyclopen-tylmethyl)phenylsulfonamido)-3-hydroxy-1-phenylbutan-2-yl)carbamate-d14] |
|  |  |  |  |  |  | 8.3 | 7.9 | 8.1 |  | [2H]C([2H])([2H])C([2H])(C([2H])([2H])[2H])C([2H])([2H])N(C[C@@H](O)[C@H](Cc1ccccc1)NC(=O)O[C@]1([2H])[C@H]2[C@H](OC([2H])([2H])C2([2H])[2H])OC1([2H])[2H])S(=O)(=O)c1ccc2ncsc2c1 [Compound 237, (3R,3aS,6aR)-hexahydrofuro[2,3-b]furan-3-yl-((2S,3R)-3-hydroxy-4-(N-isobutylbenzo[d]thiazole-6-sulfonamido)-1-phenylbutan-2-yl)carbamate-d16] |
|  |  |  | 1.9 | 1.5 | 1.7 |  |  |  |  | CCOC(=O)NCc1coc2ccc(S(=O)(=O)N(CC(C)C)C[C@@H](O)[C@H](Cc3ccccc3)NC(=O)O[C@H]3CO[C@H]4OCC[C@H]43)cc12 [Compound 301, reference compound] |
| 5.6 | 6.4 | 6 |  |  |  | 8.2 | 8.7 | 8.5 |  | CC(C)CN(C[C@@H](O)[C@H](Cc1ccccc1)NC(=O)O[C@H]1CO[C@H]2OCC[C@H]21)S(=O)(=O)c1ccc2ncsc2c1 [Compound 302, reference compound] |
| 21.1 | 19.9 | 20.5 |  |  |  |  |  |  |  | CC(C)CN(C[C@@H](O)[C@H](Cc1ccccc1)NC(=O)O[C@H]1CO[C@H]2OCC[C@H]21)S(=O)(=O)c1ccc2occc2c1 [Compound 303, reference compound] |
